Assay results published in patent publication US10947242B2, “[1,2,4]triazolo[1,5and#8208;A]pyrimidine compounds as PDE2 inhibitors” (Janssen Pharmaceutica NV, priority 2016, dated 2021).
pIC50: −log10 of the molar value. Like-named read-outs stand apart in the source and are kept apart here.

Tests used:
[1] = target: T1, Human recombinant PDE10A (hPDE10A) (Homo sapiens, UniProt Q9Y233); experiment: In vitro assay PDE10A, human clone (SPA, 3H-cAMP hydrolysis); assay type: biochemical
T1 construct: His tag (inferred from metal chelate purification); made in house; host or cells: Sf9 insect cells (baculovirus)
T1 sequence (Q9Y233 267-1055): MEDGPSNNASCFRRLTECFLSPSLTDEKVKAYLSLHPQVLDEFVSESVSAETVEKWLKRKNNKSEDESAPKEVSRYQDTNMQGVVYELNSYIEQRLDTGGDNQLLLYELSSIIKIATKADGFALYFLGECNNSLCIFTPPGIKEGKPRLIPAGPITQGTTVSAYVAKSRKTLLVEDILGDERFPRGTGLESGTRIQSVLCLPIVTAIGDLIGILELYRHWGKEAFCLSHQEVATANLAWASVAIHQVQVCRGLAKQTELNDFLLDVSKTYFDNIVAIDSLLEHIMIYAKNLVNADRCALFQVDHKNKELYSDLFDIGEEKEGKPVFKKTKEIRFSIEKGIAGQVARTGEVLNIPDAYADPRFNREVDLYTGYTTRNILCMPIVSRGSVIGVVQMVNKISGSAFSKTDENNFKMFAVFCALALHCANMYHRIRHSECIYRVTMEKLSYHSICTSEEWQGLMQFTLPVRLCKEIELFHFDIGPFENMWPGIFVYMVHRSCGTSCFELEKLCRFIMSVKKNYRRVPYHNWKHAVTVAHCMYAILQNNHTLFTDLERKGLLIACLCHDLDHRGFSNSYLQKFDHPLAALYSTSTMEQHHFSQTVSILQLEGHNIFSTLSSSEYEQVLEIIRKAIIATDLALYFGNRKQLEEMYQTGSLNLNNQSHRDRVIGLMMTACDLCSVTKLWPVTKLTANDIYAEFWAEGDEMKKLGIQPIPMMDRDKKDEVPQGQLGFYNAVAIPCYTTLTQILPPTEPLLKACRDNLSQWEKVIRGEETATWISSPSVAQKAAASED
Method in brief: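 Human recombinant PDE10A was expressed in Sf9 cells via baculovirus and incubated with compound in 50 mM Tris pH 7.8, 8.3 mM MgCl2, 1.7 mM EGTA. Substrate was 60 nM cAMP plus 0.008 μCi 3H-cAMP for 60 min at room temperature, read by SPA scintillation counting. Controls used 1% DMSO, and blanks omitted enzyme.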

PDE2A = target: T2, PDE2A (Rattus norvegicus, UniProt Q01062); experiment: PDE2 occupancy by test compounds, ex-vivo autoradiography with [3H]B-17a; assay type: in vivo, Male Wistar rats; conditions: for receptor occupancy at 10 mg/kg: percentage receptor occupancy, ex-vivo autoradiography, striatum
T2 construct: Twenty μm-thick striatal sections were cut; from tissue; host or cells: rat brain, striatal sections
T2 sequence (Q01062 1-928): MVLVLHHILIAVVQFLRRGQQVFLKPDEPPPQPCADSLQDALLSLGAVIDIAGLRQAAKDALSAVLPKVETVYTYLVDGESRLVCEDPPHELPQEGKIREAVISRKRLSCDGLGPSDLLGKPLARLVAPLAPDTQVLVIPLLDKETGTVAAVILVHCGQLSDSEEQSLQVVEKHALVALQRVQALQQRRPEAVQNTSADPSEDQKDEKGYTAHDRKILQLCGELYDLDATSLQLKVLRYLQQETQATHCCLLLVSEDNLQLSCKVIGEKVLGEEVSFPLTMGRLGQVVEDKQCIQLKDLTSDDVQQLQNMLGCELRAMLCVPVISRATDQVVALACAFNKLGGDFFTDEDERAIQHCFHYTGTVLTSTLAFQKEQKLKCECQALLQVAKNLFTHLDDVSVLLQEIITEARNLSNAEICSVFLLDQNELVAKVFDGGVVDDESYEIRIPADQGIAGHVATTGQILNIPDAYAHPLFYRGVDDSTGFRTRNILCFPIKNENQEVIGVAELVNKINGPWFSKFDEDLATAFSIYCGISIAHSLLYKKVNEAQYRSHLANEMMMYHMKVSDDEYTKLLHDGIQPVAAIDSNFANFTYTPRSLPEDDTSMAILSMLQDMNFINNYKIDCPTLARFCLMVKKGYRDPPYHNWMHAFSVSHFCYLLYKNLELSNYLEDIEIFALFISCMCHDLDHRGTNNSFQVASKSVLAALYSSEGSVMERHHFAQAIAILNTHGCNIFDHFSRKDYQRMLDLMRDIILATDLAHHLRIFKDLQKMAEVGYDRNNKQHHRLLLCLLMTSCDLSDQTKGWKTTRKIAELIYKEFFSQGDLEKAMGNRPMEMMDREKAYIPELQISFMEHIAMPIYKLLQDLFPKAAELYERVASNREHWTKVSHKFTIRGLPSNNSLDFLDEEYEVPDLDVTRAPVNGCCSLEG

[2] = target: T3, Human recombinant PDE2A (hPDE2A) (Homo sapiens, UniProt O00408); experiment: In vitro assay PDE2A (SPA, 3H-cGMP hydrolysis); assay type: biochemical; conditions: for Emax: read-out: hPDE2A Emax; for IC50: read-out: hPDE2A pIC50 (converted)
T3 construct: His tag (inferred from metal chelate purification); made in house; host or cells: Sf9 insect cells (baculovirus)
T3 sequence (O00408 whole entry): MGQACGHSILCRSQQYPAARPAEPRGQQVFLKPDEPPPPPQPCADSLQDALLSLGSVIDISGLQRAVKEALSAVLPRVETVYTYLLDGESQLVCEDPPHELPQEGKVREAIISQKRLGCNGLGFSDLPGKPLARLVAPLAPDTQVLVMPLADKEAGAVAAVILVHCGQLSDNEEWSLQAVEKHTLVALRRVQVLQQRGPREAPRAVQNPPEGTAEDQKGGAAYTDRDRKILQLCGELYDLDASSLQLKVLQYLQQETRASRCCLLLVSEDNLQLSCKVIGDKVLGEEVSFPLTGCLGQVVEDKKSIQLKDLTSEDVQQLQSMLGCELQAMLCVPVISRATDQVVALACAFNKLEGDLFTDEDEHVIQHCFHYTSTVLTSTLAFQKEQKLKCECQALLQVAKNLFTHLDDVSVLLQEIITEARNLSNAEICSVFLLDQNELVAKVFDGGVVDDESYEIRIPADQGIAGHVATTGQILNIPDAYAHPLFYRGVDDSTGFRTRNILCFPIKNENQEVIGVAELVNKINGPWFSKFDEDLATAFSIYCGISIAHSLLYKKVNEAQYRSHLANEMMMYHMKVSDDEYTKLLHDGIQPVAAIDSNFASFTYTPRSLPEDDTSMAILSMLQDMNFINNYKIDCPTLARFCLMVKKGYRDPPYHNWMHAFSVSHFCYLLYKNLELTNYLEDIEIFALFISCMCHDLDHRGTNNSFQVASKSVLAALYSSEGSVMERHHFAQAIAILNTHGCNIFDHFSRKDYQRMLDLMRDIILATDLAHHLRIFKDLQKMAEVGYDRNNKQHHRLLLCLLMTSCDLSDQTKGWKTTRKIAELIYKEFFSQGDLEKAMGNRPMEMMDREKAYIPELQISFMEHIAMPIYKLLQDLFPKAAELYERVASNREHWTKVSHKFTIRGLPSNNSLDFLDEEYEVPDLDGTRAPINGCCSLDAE

[3] = target: T4, Human recombinant PDE3A (hPDE3A) (Homo sapiens, UniProt Q14432); experiment: In vitro assay PDE3A (SPA, 3H-cAMP hydrolysis); assay type: biochemical; conditions: for IC50: hPDE3B pIC50, read-out: pIC50 (converted); for Emax: read-out: hPDE3B Emax, read-out: Emax;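 for all read-outs here: the method names PDE3A and the table heading PDE3B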
T4 construct: purchased Scottish Biomedical; host or cells: Sf9 insect cells
T4 sequence (Q14432 whole entry): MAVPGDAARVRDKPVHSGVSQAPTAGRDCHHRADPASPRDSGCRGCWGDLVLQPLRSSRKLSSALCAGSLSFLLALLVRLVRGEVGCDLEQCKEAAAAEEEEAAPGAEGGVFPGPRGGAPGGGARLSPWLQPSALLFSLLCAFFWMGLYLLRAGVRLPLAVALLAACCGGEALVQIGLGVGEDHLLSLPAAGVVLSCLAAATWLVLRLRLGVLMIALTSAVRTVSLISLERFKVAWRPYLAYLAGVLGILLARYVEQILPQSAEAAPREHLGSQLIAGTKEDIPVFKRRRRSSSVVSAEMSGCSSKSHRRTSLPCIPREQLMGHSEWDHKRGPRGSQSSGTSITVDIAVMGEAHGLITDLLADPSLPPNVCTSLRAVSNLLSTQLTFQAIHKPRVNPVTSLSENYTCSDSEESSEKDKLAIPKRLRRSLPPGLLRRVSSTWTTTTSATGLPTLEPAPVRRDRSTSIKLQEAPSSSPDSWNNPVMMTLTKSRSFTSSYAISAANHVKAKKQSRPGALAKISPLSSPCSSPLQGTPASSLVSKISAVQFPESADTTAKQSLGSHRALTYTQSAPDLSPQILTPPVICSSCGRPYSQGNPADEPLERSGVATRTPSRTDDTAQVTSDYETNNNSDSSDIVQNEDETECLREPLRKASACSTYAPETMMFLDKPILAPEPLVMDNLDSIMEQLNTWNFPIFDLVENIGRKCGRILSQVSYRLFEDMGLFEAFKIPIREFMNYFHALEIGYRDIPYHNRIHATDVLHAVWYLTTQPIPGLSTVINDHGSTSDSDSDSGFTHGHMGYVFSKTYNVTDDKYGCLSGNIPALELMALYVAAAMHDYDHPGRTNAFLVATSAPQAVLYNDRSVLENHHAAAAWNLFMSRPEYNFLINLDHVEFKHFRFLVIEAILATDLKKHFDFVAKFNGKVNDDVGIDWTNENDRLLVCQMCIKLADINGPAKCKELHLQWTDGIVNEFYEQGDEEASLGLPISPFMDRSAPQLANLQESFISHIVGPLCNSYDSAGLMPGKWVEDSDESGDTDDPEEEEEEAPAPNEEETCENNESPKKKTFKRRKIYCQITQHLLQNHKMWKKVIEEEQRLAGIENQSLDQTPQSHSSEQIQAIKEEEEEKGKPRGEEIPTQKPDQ
Method in brief: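 Human PDE3A, cloned from brain, as partially purified Sf9 lysate. Substrate 0.4 μM cAMP plus [3H]-cAMP (2.4 μCi/ml final) in 50 mM Tris pH 7.8, 8.3 mM MgCl2, 1.7 mM EGTA, 60 min at room temperature, 1% DMSO final. Hydrolysis read by SPA scintillation counting against no-enzyme blanks and DMSO controls.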

[4] = human clone by default (no (r) mark), read-out: hPDE10A2 or rPDE10A2 Emax
[5] = human clone by default (no (r) mark), read-out: hPDE10A2 or rPDE10A2 pIC50 (converted)
[6] = human clone (h), default, read-out: hPDE10A2 Emax
[7] = human clone (h), default, read-out: hPDE10A2 pIC50 (converted)
[8] = human recombinant PDE2A, 10 μM cGMP substrate

Row | Emax [2] [%] | IC50 [2] [nM] | IC50 [3] [nM] | Emax [3] [%] | receptor occupancy at 10 mg/kg (PDE2A; po, route PO (oral)) [%] | Emax [1, 6] [%] | IC50 [1, 7] [nM] | receptor occupancy at 10 mg/kg (PDE2A; sc, route SC (subcutaneous)) [%] | IC50 [2, 8] [nM] | Emax ([2]; human recombinant PDE2A) [%] | Structure (SMILES) | Emax [1, 4] [%] | IC50 [1, 5] [nM] | receptor occupancy at 10 mg/kg (PDE2A; route PO (oral)) [%] | ED50 (PDE2A; po, read-out: PDE Occupancy ED50) [mg/kg] | pIC50 ([2]; hPDE2A pIC50) | pIC50 ([2]; hPDE2A pIC50, human recombinant PDE2A, 10 μM cGMP substrate)
1 | 99 | 0.933 | 708 | 97 | 30 | – | – | – | – | – | Cc1cc(C(=O)N2CC[C@@H](C)[C@H](c3cc(C(F)F)nc4ncnn34)C2)c(F)c(C2CC2)n1 [Compound 278] | 99 | 145 | – | – | – | –
2 | 99 | 8.51 | 1550 | 87 | – | 98 | 209 | 2 | 8.51 | 99 | Cc1nc2cc(C(=O)N3CC[C@@H](C)[C@H](c4cc(C(F)F)nc5ncnn45)C3)ccc2o1 [Compound 188] | – | – | – | – | – | –
3 | 100 | 4.57 | 2140 | 84 | 1 | 84 | 1290 | – | 4.57 | 100 | C[C@@H]1CCN(C(=O)c2cc3c(nc2Cl)CCCC3)C[C@H]1c1cc(C(F)F)nc2ncnn12 [Compound 170] | – | – | – | – | – | –
4 | 99 | 1.78 | 513 | 95 | -15 | 96 | 58.9 | – | 1.78 | 99 | C[C@@H]1CCN(C(=O)c2ccc(Cl)c(OC(F)F)c2)C[C@H]1c1cc(C(F)F)nc2ncnn12 [Compound 121] | – | – | – | – | – | –
5 | 100 | 0.912 | > 10000 | 37 | 34 | 88 | 1100 | – | 0.912 | 100 | Cc1cnc(Cl)cc1C(=O)N1CC[C@@H](C)[C@H](c2cc(C(F)F)nc3ncnn23)C1 [Compound 27] | – | – | – | – | – | –
6 | 99 | 5.01 | > 10000 | 29 | 2 | 88 | 1320 | – | 5.01 | 99 | C[C@@H]1CCN(C(=O)c2cc(Cl)ncc2Cl)C[C@H]1c1cc(C(F)F)nc2ncnn12 [Compound 43] | – | – | – | – | – | –

More lines, now with the values behind:

Row | Structure (SMILES) | Emax [2] [%] | IC50 [2] [nM] | IC50 [3] [nM] | Emax [3] [%] | receptor occupancy at 10 mg/kg (PDE2A; po, route PO (oral)) [%] | Emax [1, 6] [%] | IC50 [1, 7] [nM] | receptor occupancy at 10 mg/kg (PDE2A; sc, route SC (subcutaneous)) [%] | IC50 [2, 8] [nM] | Emax ([2]; human recombinant PDE2A) [%] | Emax [1, 4] [%] | IC50 [1, 5] [nM] | receptor occupancy at 10 mg/kg (PDE2A; route PO (oral)) [%] | ED50 (PDE2A; po, read-out: PDE Occupancy ED50) [mg/kg] | pIC50 ([2]; hPDE2A pIC50) | pIC50 ([2]; hPDE2A pIC50, human recombinant PDE2A, 10 μM cGMP substrate)
7 | O=C(c1ccc2cnccc2c1)N1[C@H]2CC[C@H](c3cc(C(F)F)nc4ncnn34)[C@@H]1CC2 [Compound 314] | 100 | 5.75 | 3550 | 73 | – | – | – | – | – | – | 91 | 933 | 5 | – | – | –
8 | Cc1nn(C)c2sc(C(=O)N3[C@H]4CC[C@H](c5cc(C(F)F)nc6ncnn56)[C@@H]3CC4)cc12 [Compound 335] | 102 | 0.955 | 7240 | 52 | – | – | – | – | – | – | 98 | 87.1 | 88 | 0.985 | – | –
9 | O=C(c1cnc2ccccc2c1)N1[C@H]2CC[C@H](c3cc(C(F)F)nc4ncnn34)[C@@H]1CC2 [Compound 313] | 97 | 1.35 | 6030 | 61 | – | – | – | – | – | – | 86 | 1230 | 28 | – | – | –
10 | Cc1cc(C(=O)N2CC[C@@H](C)[C@H](c3cc(C(F)F)nc4ncnn34)C2)cc(C)c1C#N [Compound 78] | 102 | – | 1580 | 87 | – | 98 | 105 | 77 | – | – | – | – | – | – | 9.00 | 9.00
11 | Cc1cc(C(=O)N2[C@H]3CC[C@H](c4cc(C(F)F)nc5ncnn45)[C@@H]2CC3)cnc1C [Compound 366] | 99 | 10.2 | > 10000 | 22 | – | – | – | – | – | – | 64 | 5750 | 18 | – | – | –
12 | Cc1cc([C@@H]2CN(C(=O)c3cc4cccnc4nc3C(F)(F)F)CC[C@H]2C)n2ncnc2n1 [Compound 13] | 100 | 10.5 | > 10000 | 38 | 2 | 95 | 347 | – | 10.5 | 100 | – | – | – | – | – | –
13 | C[C@@H]1CCN(C(=O)c2ccc(C3CC3)c(F)c2)C[C@H]1c1cc(C(F)F)nc2ncnn12 [Compound 103] | 99 | 0.708 | 87.1 | 100 | – | 100 | 18.2 | 42 | 0.708 | 99 | – | – | – | – | – | –
14 | Cc1cc(C(=O)N2[C@H]3CC[C@H](c4cc(C(F)F)nc5ncnn45)[C@@H]2CC3)cc(C(F)(F)F)n1 [Compound 286] | 101 | 6.92 | > 10000 | 14 | – | – | – | – | – | – | 79 | 2240 | 5 | – | – | –
15 | Cc1cc(C(=O)N2CC[C@@H](C)[C@H](c3cc(C)nc4ncnn34)C2)cc(OC(F)F)n1 [Compound 275] | 100 | 2.82 | 977 | 92 | 23 | – | – | – | – | – | 100 | 28.8 | – | – | – | –
16 | COc1cc(C(=O)N2CC[C@@H](C)[C@H](c3cc(C)nc4ncnn34)C2)c(C(F)(F)F)cn1 [Compound 37] | 100 | 17.4 | 8910 | 52 | -13 | 93 | 427 | – | – | – | – | – | – | – | – | –
